Source: patent US20260363244A1, “HERBICIDAL COMPOSITIONS COMPRISING URACILS” (BASF SE, priority 2022, published 2026)
Like-named read-outs stand apart in the source and are kept apart here.

Experiments:
Type in all cases: in vivo
Abutilon theophrasti = assay: greenhouse post-emergence herbicidal activity, ABUTH; conditions: read-out: % activity (solo application); for activity at 0.4 g/ha: 0.4 gai/ha; for activity at 0.8 g/ha: 0.8 gai/ha
Procedure: (§1) The following examples serve to illustrate the invention.
(§2) The culture containers used were plastic pots containing loamy sand with approximately 3.0% of humus as substrate. The seeds of the test plants were sown separately for each species.
(§3) For the post-emergence treatment, the test plants were grown to a plant height of from 3 to 15 cm, depending on the plant habit, and only then treated with the active compounds which had been suspended or emulsified in water. To this end, the test plants were either sown directly, and grown in the same containers, or they were first grown separately as seedlings and transplanted into the test containers a few days prior to treatment.
(§4) Depending on the species, the plants were kept at 10-25 °C and 20-35 °C, respectively. The test period extended over 2 to 4 weeks. During this time, the plants were tended and their response to the individual treatments was evaluated.
(§5) Evaluation was carried out using a scale from 0 to 100. 100 means no emergence of the plants, or complete destruction of at least the above-ground parts, and 0 means no damage or normal course of growth. A good herbicidal activity is given at values of at least 70, and very good herbicidal activity is given at values of at least 85.
(§6) The respective stated components A and B, and if appropriate, C were formulated as a 5% by weight strength emulsion concentrate and, with addition of the amount of solvent system, introduced into the spray liquor used for applying the active compound. In the examples, the solvent used was water.
(§7) In the examples below, using the method of S. R. Colby (1967) “Calculating synergistic and antagonistic responses of herbicide combinations”, Weeds 15, p. 22ff., the value E, which is expected if the activity of the individual active compounds is only additive, was calculated.
(§8) E=X+Y−(X·Y/100) • where • X=percent activity using active compound A at an application rate a; • Y=percent activity using active compound B at an application rate b; • E=expected activity (in %) by A+B at application rates a+b.
(§9) The plants used in the greenhouse experiments were of the following species
(§10) In this context, a.i. means active ingredient, based on 100% active ingredient.
(§11) As indicated the application was post emergent (POST) at the respective growth stage (GS) of the weed.
(§12) Assessment was at the indicated days after treatment (DAT).

Amaranthus tamariscinus = assay: greenhouse post-emergence herbicidal activity, AMATA; conditions: read-out: % activity (solo application); for activity at 0.4 g/ha: 0.4 gai/ha
Procedure: as §1, §2, §3, §4, §5, §6, §7, §8, §9, §10, §11, §12

Avena fatua = assay: greenhouse post-emergence herbicidal activity, AVEFA; conditions: read-out: % activity (solo application); for activity at 0.4 g/ha: 0.4 gai/ha
Procedure: as §1, §2, §3, §4, §5, §6, §7, §8, §9, §10, §11, §12

Brachiaria decumbens = assay: greenhouse post-emergence herbicidal activity, BRADC; conditions: for activity at […]: Urochloa decumbens, post-emergence, read-out: % activity (solo application)
Procedure: as §1, §2, §3, §4, §5, §6, §7, §8, §9, §10, §11, §12

Commenline benghalensis = assay: greenhouse post-emergence herbicidal activity, COMBE; conditions: read-out: % activity (solo application); for activity at […]: 168 h, GS 11-33, 7 DAT
Procedure: as §1, §2, §3, §4, §5, §6, §7, §8, §9, §10, §11, §12

Digitaria sanguinales = assay: greenhouse post-emergence herbicidal activity, DIGSA
Procedure: as §1, §2, §3, §4, §5, §6, §7, §8, §9, §10, §11, §12

Echinocloa crus-galli = assay: greenhouse post-emergence herbicidal activity, ECHCG; conditions: for activity at 0.4 g/ha: Echinochloa crus-galli, post-emergence, 0.4 gai/ha, read-out: % activity (solo application); for % activity: solo application, ECHCG
Procedure: as §1, §2, §3, §4, §5, §6, §7, §8, §9, §10, §11, §12

Eleusine indica = assay: greenhouse post-emergence herbicidal activity, ELEIN; conditions: read-out: % activity (solo application); for activity at 0.4 g/ha: 0.4 gai/ha
Procedure: as §1, §2, §3, §4, §5, §6, §7, §8, §9, §10, §11, §12

Kochia scoparia = assay: greenhouse post-emergence herbicidal activity, KCHSC; conditions: for activity at 0.4 g/ha: 0.4 gai/ha; for % activity: solo application, KCHSC
Procedure: as §1, §2, §3, §4, §5, §6, §7, §8, §9, §10, §11, §12

Lolium multiflorum = assay: greenhouse post-emergence herbicidal activity, LOLMU; conditions: for activity at […]: Lolium multiflorum, post-emergence, 3.2 gai/ha, read-out: % activity (solo application)
Procedure: as §1, §2, §3, §4, §5, §6, §7, §8, §9, §10, §11, §12

Setaria faberi = assay: greenhouse post-emergence herbicidal activity, SETFA; conditions: Setaria faberi, post-emergence, 480 h, GS 11-33, 20 DAT, read-out: % activity (solo application)
Procedure: as §1, §2, §3, §4, §5, §6, §7, §8, §9, §10, §11, §12

Setaria viridis = assay: greenhouse post-emergence herbicidal activity, SETVI; conditions: for activity at 0.4 g/ha / activity at 0.8 g/ha / activity at […]: Setaria viridis, post-emergence, read-out: % activity (solo application); for activity at 0.4 g/ha: 0.4 gai/ha; for activity at 0.8 g/ha: 0.8 gai/ha; for % activity: solo application, SETVI
Procedure: as §1, §2, §3, §4, §5, §6, §7, §8, §9, §10, §11, §12

Sorghum halepense = assay: greenhouse post-emergence herbicidal activity, SORHA; conditions: GS 11-33, 20 DAT
Procedure: as §1, §2, §3, §4, §5, §6, §7, §8, §9, §10, §11, §12

[1] = 168 h, GS 11-33, 7 DAT, 3.2 gai/ha
[2] = 480 h, GS 11-33, 20 DAT, 3.2 gai/ha
[3] = 480 h, GS 11-33, 20 DAT, 1.6 gai/ha
[4] = 192 h, GS 11-33, 8 DAT, 3.2 gai/ha
[5] = GS 11-33, 20 DAT, use rate 0.4 gai/ha

C=C[C@]1(C(=O)N[C@H]2CO[C@@H](C(=O)OC)C2)CC(c2cc(F)cc(F)c2)=NO1 (mixture of isomers) [ISOX-8, methyl (2RS,4RS)-4-({[(5S)-3-(3,5-difluorophenyl)-5-vinyl-4,5-dihydroisoxazol-5-yl]carbonyl}amino)tetrahydrofuran-2-carboxylate]
activity at 0.4 g/ha (Abutilon theophrasti; 168 h, GS 11-33, 7 DAT): 5%
activity at 0.8 g/ha (Abutilon theophrasti; 168 h, GS 11-33, 7 DAT): 5%
activity at […] (Abutilon theophrasti; 168 h, GS 11-33, 7 DAT, 1.6 gai/ha): 10%
activity at […] (Abutilon theophrasti; [1]): 15%
activity at 0.4 g/ha (Abutilon theophrasti; 480 h, GS 11-33, 20 DAT): 5%
activity at 0.8 g/ha (Abutilon theophrasti; 480 h, GS 11-33, 20 DAT): 5%
activity at […] (Abutilon theophrasti; [2]): 20%
activity at 0.4 g/ha (Amaranthus tamariscinus; 168 h, GS 11-33, 7 DAT): 40%
activity at 0.4 g/ha (Amaranthus tamariscinus; 480 h, GS 11-33, 20 DAT): 35%
activity at 0.8 g/ha (Amaranthus tamariscinus; 480 h, GS 11-33, 20 DAT, 0.8 gai/ha): 75%
activity at 0.4 g/ha (Avena fatua; 168 h, GS 11-33, 7 DAT): 25%
activity at […] (Avena fatua; [1]): 70%
activity at 0.4 g/ha (Avena fatua; 480 h, GS 11-33, 20 DAT): 60%
activity at […] (Avena fatua; [3]): 85%
activity at […] (Avena fatua; [2]): 90%
activity at […] (Brachiaria decumbens; 192 h, GS 11-33, 8 DAT, 1.6 gai/ha): 25%
activity at […] (Brachiaria decumbens; [4]): 50%
activity at […] (Brachiaria decumbens; [2]): 30%
% activity (Brachiaria decumbens; solo application, BRADC, GS 11-33, 20 DAT, use rate 1.6 gai/ha): 20%
activity at […] (Commenline benghalensis; 1.6 gai/ha): 45%
activity at […] (Commenline benghalensis; 3.2 gai/ha): 45%
activity at 0.4 g/ha (Commenline benghalensis; 480 h, GS 11-33, 20 DAT, 0.4 gai/ha): 15%
activity at 0.4 g/ha (Digitaria sanguinales; Digitaria, post-emergence, 192 h, GS 11-33, 8 DAT, 0.4 gai/ha, read-out: % activity (solo application)): 10%
activity at […] (Digitaria sanguinales; Digitaria, post-emergence, 480 h, GS 11-33, 20 DAT, 3.2 gai/ha, read-out: % activity (solo application)): 60%
% activity (Digitaria sanguinales; solo application, DIGSA, GS 11-33, 20 DAT, use rate 0.8 gai/ha): 10%
activity at 0.4 g/ha (Echinocloa crus-galli; 168 h, GS 11-33, 7 DAT): 15%
activity at 0.4 g/ha (Echinocloa crus-galli; 480 h, GS 11-33, 20 DAT): 10%
% activity (Echinocloa crus-galli; [5]): 10%
% activity (Echinocloa crus-galli; GS 11-33, 20 DAT, use rate 0.8 gai/ha): 35%
activity at 0.4 g/ha (Eleusine indica; 168 h, GS 11-33, 7 DAT): 10%
activity at 0.4 g/ha (Eleusine indica; 480 h, GS 11-33, 20 DAT): 5%
activity at […] (Eleusine indica; [2]): 70%
activity at 0.4 g/ha (Kochia scoparia; Bassia scoparia, post-emergence, 168 h, GS 11-33, 7 DAT, read-out: % activity (solo application)): 10%
activity at 0.8 g/ha (Kochia scoparia; Bassia scoparia, post-emergence, 168 h, GS 11-33, 7 DAT, 0.8 gai/ha, isoxazolin, read-out: % activity (solo application)): 25%
activity at […] (Kochia scoparia; Bassia scoparia, post-emergence, 168 h, GS 11-33, 7 DAT, 3.2 gai/ha, read-out: % activity (solo application)): 55%
activity at 0.4 g/ha (Kochia scoparia; Bassia scoparia, post-emergence, 480 h, GS 11-33, 20 DAT, read-out: % activity (solo application)): 10%
activity at […] (Kochia scoparia; Bassia scoparia, post-emergence, 480 h, GS 11-33, 20 DAT, 1.6 gai/ha, read-out: % activity (solo application)): 60%
activity at […] (Kochia scoparia; Bassia scoparia, post-emergence, 480 h, GS 11-33, 20 DAT, 3.2 gai/ha, read-out: % activity (solo application)): 70%
% activity (Kochia scoparia; GS 11-33, 7 DAT, use rate 3.2 gai/ha): 55%
% activity (Kochia scoparia; [5]): 10%
activity at […] (Lolium multiflorum; 168 h, GS 11-33, 7 DAT): 50%
activity at […] (Lolium multiflorum; 480 h, GS 11-33, 20 DAT): 80%
% activity (Lolium multiflorum; solo application, LOLMU, GS 11-33, 7 DAT, use rate 3.2 gai/ha): 50%
activity at 0.4 g/ha (Setaria faberi; 0.4 gai/ha): 20%
activity at […] (Setaria faberi; 1.6 gai/ha): 60%
activity at […] (Setaria faberi; 3.2 gai/ha): 90%
activity at 0.4 g/ha (Setaria viridis; 192 h, GS 11-33, 8 DAT): 10%
activity at 0.8 g/ha (Setaria viridis; 192 h, GS 11-33, 8 DAT): 25%
activity at […] (Setaria viridis; [4]): 40%
activity at 0.4 g/ha (Setaria viridis; 480 h, GS 11-33, 20 DAT): 10%
activity at 0.8 g/ha (Setaria viridis; 480 h, GS 11-33, 20 DAT): 25%
activity at […] (Setaria viridis; [3]): 50%
activity at […] (Setaria viridis; [2]): 85%
% activity (Setaria viridis; GS 11-33, 8 DAT, use rate 0.4 gai/ha): 10%
% activity (Setaria viridis; GS 11-33, 8 DAT, use rate 3.2 gai/ha): 40%
activity at 0.8 g/ha (Sorghum halepense; Sorghum halepense, post-emergence, 480 h, 0.8 gai/ha, isoxazolin, read-out: % activity (solo application)): 55%
activity at […] (Sorghum halepense; Sorghum halepense, post-emergence, 480 h, 1.6 gai/ha, read-out: % activity (solo application)): 60%
activity at […] (Sorghum halepense; Sorghum halepense, post-emergence, 480 h, 3.2 gai/ha, read-out: % activity (solo application)): 85%
% activity (Sorghum halepense; solo application, SORHA, use rate 0.8 gai/ha): 35%
